Source: publication PMC6992940 (Bone Reports, 2020)

Target: ERα (estrogen receptor alpha) (Homo sapiens, UniProt P03372)
Experiment: fluorescence polarization competitor assay
Format: binding

ERα (estrogen receptor alpha), sequence (P03372 whole entry): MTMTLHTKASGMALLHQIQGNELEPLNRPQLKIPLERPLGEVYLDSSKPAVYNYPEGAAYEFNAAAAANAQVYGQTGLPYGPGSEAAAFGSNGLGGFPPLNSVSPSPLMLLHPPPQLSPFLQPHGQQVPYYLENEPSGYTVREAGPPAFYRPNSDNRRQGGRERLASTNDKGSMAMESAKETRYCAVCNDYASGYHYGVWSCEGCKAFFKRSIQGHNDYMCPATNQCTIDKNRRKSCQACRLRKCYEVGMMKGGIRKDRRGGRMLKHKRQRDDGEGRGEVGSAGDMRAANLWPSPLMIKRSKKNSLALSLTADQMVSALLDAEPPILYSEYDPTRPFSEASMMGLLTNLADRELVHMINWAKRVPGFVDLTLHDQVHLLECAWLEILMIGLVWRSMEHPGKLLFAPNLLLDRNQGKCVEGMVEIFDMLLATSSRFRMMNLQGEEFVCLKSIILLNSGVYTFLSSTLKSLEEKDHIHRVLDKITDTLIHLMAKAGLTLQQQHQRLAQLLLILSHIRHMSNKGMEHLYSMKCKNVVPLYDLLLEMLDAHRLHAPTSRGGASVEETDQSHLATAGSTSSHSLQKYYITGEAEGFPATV

COc1ccc2c(C(=O)c3ccc(OCCN4CCCCC4)cc3)c(-c3ccc(O)cc3)sc2c1 [compound 2, (2-(4-hydroxyphenyl)-6-methoxybenzo[b]thiophen-3-yl)(4-(2-(piperidin-1-yl)ethoxy)phenyl)methanone]
IC50: 183 nM
